Data from patent publication US20240360157A1, “TYK2 INHIBITORS” (BIOGEN MA INC., priority 2021, published 2024).
Structures can show the parent of a compound that is named as a salt.

Legend:
Assay type in all cases: biochemical
[1] = molecular target: human JAK1 catalytic kinase (JH1) domain (Homo sapiens (Human), UniProt P23458); assay: ADP-Glo Kinase Assay, recombinant JAK1 catalytic kinase (JH1) domain; conditions: recombinant JH1 domain 4 nM, 35 μM ATP, JAK3-342 peptide, mean, read-out: JAK1 biochem IC50 (nM) Mean
Sequence of human JAK1 catalytic kinase (JH1) domain (P23458 875-1153): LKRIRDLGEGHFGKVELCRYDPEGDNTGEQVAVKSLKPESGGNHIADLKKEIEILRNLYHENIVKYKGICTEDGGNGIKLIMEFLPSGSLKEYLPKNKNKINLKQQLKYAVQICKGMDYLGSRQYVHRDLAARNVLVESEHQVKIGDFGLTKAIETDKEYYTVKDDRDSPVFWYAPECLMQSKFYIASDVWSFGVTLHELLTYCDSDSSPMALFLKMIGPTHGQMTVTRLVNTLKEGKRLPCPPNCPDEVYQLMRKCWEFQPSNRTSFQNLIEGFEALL
How it was run: (§1)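 Reactions contain 50 μM peptide and run 100 minutes, with enzyme at 4, 0.2, 0.3 and 2 nM for JAK1, JAK2, JAK3 and TYK2. Generated ADP is read by luminescence; IC50 derives from normalized dose-response curves.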

[2] = molecular target: human JAK3 catalytic kinase (JH1) domain (Homo sapiens (Human), UniProt P52333); assay: ADP-Glo Kinase Assay, recombinant JAK3 catalytic kinase (JH1) domain; conditions: recombinant JH1 domain 0.3 nM, 4 μM ATP, JAK3-974 peptide, mean, read-out: JAK3 biochem IC50 (nM) Mean
Sequence of human JAK3 catalytic kinase (JH1) domain (P52333 822-1111): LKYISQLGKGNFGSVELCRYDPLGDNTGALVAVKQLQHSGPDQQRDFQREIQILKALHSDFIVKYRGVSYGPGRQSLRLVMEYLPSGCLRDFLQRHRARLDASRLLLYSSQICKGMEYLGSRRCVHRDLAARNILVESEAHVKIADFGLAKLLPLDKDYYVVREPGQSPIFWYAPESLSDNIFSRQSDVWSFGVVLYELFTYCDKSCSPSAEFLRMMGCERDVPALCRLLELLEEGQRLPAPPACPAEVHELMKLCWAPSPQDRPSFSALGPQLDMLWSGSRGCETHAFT
How it was run: as §1

[3] = molecular target: human TYK2 catalytic kinase (JH1) domain (Homo sapiens (Human), UniProt P29597); assay: ADP-Glo Kinase Assay, recombinant TYK2 catalytic kinase (JH1) domain; conditions: recombinant JH1 domain 2 nM, 10 μM ATP, JAK3-974 peptide, mean, read-out: TYK2 biochem IC50 (nM) Mean
Sequence of human TYK2 catalytic kinase (JH1) domain (P29597 897-1176): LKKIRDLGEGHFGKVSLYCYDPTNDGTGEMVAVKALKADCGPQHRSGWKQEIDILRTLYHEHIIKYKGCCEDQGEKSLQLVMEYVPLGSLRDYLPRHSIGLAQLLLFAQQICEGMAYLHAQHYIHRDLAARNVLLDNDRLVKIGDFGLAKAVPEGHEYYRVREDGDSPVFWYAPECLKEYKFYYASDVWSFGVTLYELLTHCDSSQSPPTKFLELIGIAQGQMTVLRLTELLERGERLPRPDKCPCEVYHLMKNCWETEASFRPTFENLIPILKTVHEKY
How it was run: as §1

[4] = molecular target: human JAK2 catalytic kinase (JH1) domain (Homo sapiens (Human), UniProt O60674); assay: ADP-Glo Kinase Assay, recombinant JAK2 catalytic kinase (JH1) domain; conditions: recombinant JH1 domain 0.2 nM, 15 μM ATP, JAK3-974 peptide, mean, read-out: JAK2 biochem IC50 (nM) Mean
Sequence of human JAK2 catalytic kinase (JH1) domain (O60674 849-1124): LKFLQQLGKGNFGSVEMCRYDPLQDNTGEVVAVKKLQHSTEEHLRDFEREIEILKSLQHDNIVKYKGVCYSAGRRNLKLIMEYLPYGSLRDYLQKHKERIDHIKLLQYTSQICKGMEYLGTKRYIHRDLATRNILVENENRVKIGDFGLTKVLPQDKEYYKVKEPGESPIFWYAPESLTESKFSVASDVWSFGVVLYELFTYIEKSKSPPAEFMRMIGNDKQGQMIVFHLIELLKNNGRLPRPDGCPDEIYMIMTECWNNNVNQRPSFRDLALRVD
How it was run: as §1

Row | SMILES | IC50 [1] [nM] | IC50 [2] [nM] | IC50 [3] [nM] | IC50 [4] [nM]
1 | Cn1cc(-c2cc3c(N4CC5CCC(C4)N5C(=O)C(F)(F)F)ncnn3c2)cn1 [Example 87, 2,2,2-trifluoro-1-(3-(6-(1-methyl-1H-pyrazol-4-yl)pyrrolo[2,1-f][1,2,4]triazin-4-yl)-3,8-diazabicyclo[3.2.1]octan-8-yl)ethan-1-one] | 1200 | 2550 | 266 | 4870
2 | Cn1cc(-c2cc3c(N4CC5CCC(C4)N5C(=O)C4(C)CCC4)ncnn3c2)cn1 [Example 68, (3-(6-(1-methyl-1H-pyrazol-4-yl)pyrrolo[2,1-f][1,2,4]triazin-4-yl)-3,8-diazabicyclo[3.2.1]octan-8-yl)(1-methylcyclobutyl)methanone] | 8700 | 8670 | 696 | 9180
3 | Cn1cc(-c2cc3c(N4CC5CCC(C4)N5C(=O)[C@H]4C[C@@H]4C#N)ncnn3c2)cn1 (racemic) [Example 66, Rac-(1S,2S)-2-(3-(6-(1-methyl-1H-pyrazol-4-yl)pyrrolo[2,1-f][1,2,4]triazin-4-yl)-3,8-diazabicyclo[3.2.1]octane-8-carbonyl)cyclopropane-1-carbonitrile] | 1510 | 5540 | 242 | 3610
4 | N#C[C@H]1C[C@@H]1C(=O)N1C2CCC1CN(c1ncnn3cc(-c4cnn(C(F)F)c4)cc13)C2 (racemic) [Example 53, Rac-(1S,2S)-2-(3-(6-(1-(difluoromethyl)-1H-pyrazol-4-yl)pyrrolo[2,1-f][1,2,4]triazin-4-yl)-3,8-diazabicyclo[3.2.1]octane-8-carbonyl)cyclopropane-1-carbonitrile] | 840 | 7370 | 166 | 3380
5 | COc1ccc(-c2cc3c(N4CC5CCC(C4)N5C(=O)[C@@H]4C[C@H]4F)ccnn3c2)nn1 [Example 122, ((1S,2R)-2-fluorocyclopropyl)(3-(6-(6-methoxypyridazin-3-yl)pyrrolo[1,2-b]pyridazin-4-yl)-3,8-diazabicyclo[3.2.1]octan-8-yl)methanone] | 308 | 940 | 3.7 | 63
6 | CC1(C(=O)N2C3CCC2CN(c2ncnn4cc(-c5cnn(C(F)F)c5)cc24)C3)CCC1 [Example 52, (3-(6-(1-(difluoromethyl)-1H-pyrazol-4-yl)pyrrolo[2,1-f][1,2,4]triazin-4-yl)-3,8-diazabicyclo[3.2.1]octan-8-yl)(1-methylcyclobutyl)methanone] | 6480 | 9370 | 425 | 9080
7 | CC(C)n1cc(-c2cc3c(N4CC5CCC(C4)N5C(=O)C4CC4)ncnn3c2)cn1 [Example 148] | 731 | 2140 | 136 | 1650
8 | O=C([C@@H]1C[C@H]1F)N1C2CCC1CN(c1ccnn3cc(-c4ccnc(N5CC(F)(F)C5)c4)cc13)C2 [Example 120, (3-(6-(2-(3,3-difluoroazetidin-1-yl)pyridin-4-yl)pyrrolo[1,2-b]pyridazin-4-yl)-3,8-diazabicyclo[3.2.1]octan-8-yl)((1S,2R)-2-fluorocyclopropyl)methanone] | 1650 | 10000 | 85.2 | 636
9 | O=C(C1CC1)N1C2CCC1CN(c1ncnn3cc(-c4cnn(CC5COC5)c4)cc13)C2 [Example 160] | 555 | 780 | 107 | 931
10 | O=C(C1CC1)N1C2CCC1CN(c1ncnn3cc(-c4ccccc4F)cc13)C2 [Example 182] | 3660 | 8600 | 704 | 10000
11 | O=C(C1CC1(F)F)N1C2CCC1CN(c1ncnn3cc(-c4cnn(C(F)F)c4)cc13)C2 (stereo not shown) [Example 49, (2,2-difluorocyclopropyl)(3-(6-(1-(difluoromethyl)-1H-pyrazol-4-yl)pyrrolo[2,1-f][1,2,4]triazin-4-yl)-3,8-diazabicyclo[3.2.1]octan-8-yl)methanone] | 475 | 4900 | 81 | 2100
12 | N#Cc1cc(-c2nc3c(N4CC5CCC(C4)N5C(=O)[C@@H]4C[C@H]4F)ccnc3[nH]2)ccn1 [Example 204, 4-(7-(8-((1S,2R)-2-fluorocyclopropane-1-carbonyl)-3,8-diazabicyclo[3.2.1]octan-3-yl)-3H-imidazo[4,5-b]pyridin-2-yl)picolinonitrile] | 36 | 716 | 12 | 49
13 | Cn1cc(-c2cc3c(N4CC5CCC(C4)N5C(=O)C4CCC4)ncnn3c2)cn1 [Example 67, Cyclobutyl(3-(6-(1-methyl-1H-pyrazol-4-yl)pyrrolo[2,1-f][1,2,4]triazin-4-yl)-3,8-diazabicyclo[3.2.1]octan-8-yl)methanone] | 3230 | 4440 | 365 | 7460
14 | CC(C(=O)N1C2CCC1CN(c1ncnn3cc(-c4cnn(C(F)F)c4)cc13)C2)C(F)(F)F (stereo not shown) [Example 31, 1-(3-(6-(1-(difluoromethyl)-1H-pyrazol-4-yl)pyrrolo[2,1-f][1,2,4]triazin-4-yl)-3,8-diazabicyclo[3.2.1]octan-8-yl)-3,3,3-trifluoro-2-methylpropan-1-one trifluoroacetate] | 1480 | 6320 | 193 | 4460
15 | O=C(N1C2CCC1CN(c1ncnn3cc(-c4cnn(C(F)F)c4)cc13)C2)C1(C(F)(F)F)CC1 [Example 45, (3-(6-(1-(difluoromethyl)-1H-pyrazol-4-yl)pyrrolo[2,1-f][1,2,4]triazin-4-yl)-3,8-diazabicyclo[3.2.1]octan-8-yl)(1-(trifluoromethyl)cyclopropyl)methanone] | 7300 | 6010 | 988 | 9490
16 | Cn1cc(-c2cn3nccc(N4CC5CCC(C4)N5C(=O)[C@@H]4C[C@H]4F)c3n2)cn1 [Example 252, ((1S,2R)-2-fluorocyclopropyl)(3-(2-(1-methyl-1H-pyrazol-4-yl)imidazo[1,2-b]pyridazin-8-yl)-3,8-diazabicyclo[3.2.1]octan-8-yl)methanone] | 28 | 269 | 4 | 28
17 | O=C([C@@H]1C[C@H]1F)N1C2CCC1CN(c1ncnn3cc(-c4cnn(C(F)F)c4)cc13)C2 [Example 1, (3-(6-(1-(difluoromethyl)-1H-pyrazol-4-yl)pyrrolo[2,1-f][1,2,4]triazin-4-yl)-3,8-diazabicyclo[3.2.1]octan-8-yl)((1S,2R)-2-fluorocyclopropyl)methanone] | 228 | 1300 | 9 | 315
18 | O=C(C1CC1)N1C2CCC1CN(c1ncnn3cc(-c4ccc5nncn5c4)cc13)C2 [Example 184] | 2340 | 6270 | 230 | 7480
19 | O=C([C@@H]1C[C@H]1F)N1C2CCC1CN(c1ccnn3cc(-c4ccc(=O)n(C(F)F)c4)cc13)C2 [Example 132, 1-(difluoromethyl)-5-(4-(8-((1S,2R)-2-fluorocyclopropane-1-carbonyl)-3,8-diazabicyclo[3.2.1]octan-3-yl)pyrrolo[1,2-b]pyridazin-6-yl)pyridin-2(1H)-one] | 34 | 452 | 3.3 | 37
